Test results as given in patent US11072588B2, “Barbituric acid derivatives comprising cationic and lipophilic groups” (UNIVERSITETET I TROMSØ—NORGES ARKTISKE UNIVERSITET, priority 2017, dated 2021).
In brackets after ≈: the same amount, converted by molar mass. Where two headings read alike, the source gives them in different places.

What was measured:
S. epidermidis = assay: Anti-biofilm activity (inhibition of biofilm formation); format: cell-based; conditions: Staphylococcus epidermidis, read-out: Anti-biofilm IC50
[1] = test system: antibiotic susceptible Gram-positive and Gram-negative reference strains; assay: MIC assay, ranges over the reference strains; format: cell-based
Procedure: (§1) Working solutions of the test derivatives were prepared with up to 100% DMSO and stored at −20° C. If necessary, the solutions were heated to 40-80° C. before testing to facilitate complete dissolution. Double-distilled water was used in all dilutions prepared. […] A microdilution susceptibility test was used for MIC determination according to Clinical and Laboratory Standards Institute, “Methods for Dilution Antimicrobial Sisceptibility Tests for Bacteria That Graw Aerobically”, Approved Standard M07-A9, edition 2012, with modifications as described by Igumnova et al (Bioorg Med Chem, 2016, 24 (22), 5884-5894).
(§2) Briefly, the bacterial inoculum was adjusted to approximately 2.5-3×10^4 cells/mL in Mueller-Hinton broth (MHB, Difco Laboratories, USA), and incubated in a ratio of 1:1 with test derivatives in polystyrene 96-well flat-bottom microplates (NUNC, Roskilde, Denmark). Positive growth control (without test derivatives) and negative control (without bacteria) were included. The reference antibiotic was oxytetracycline hydrochloride (Sigma Aldrich, Saint Louis, Mo., USA). The microplates were incubated in an EnVision microplate reader (Perkin-Elmer, Turku, Finland) placed in an incubator set to 35° C. for 48 h. The MIC value was defined as the lowest concentration of derivative resulting in no bacterial growth as determined by OD600 measurement. All derivatives were tested in three parallels.

E. coli 50579417 = assay: MIC, multi-resistant clinical isolate; format: cell-based, Escherichia coli; conditions: for MIC: Escherichia coli, read-out: Antimicrobial activity (MIC); for selectivity index (EC50/MIC): RBC EC50 / MIC
E. coli 50639799 = assay: MIC, multi-resistant clinical isolate; format: cell-based, Escherichia coli; conditions: for MIC: Escherichia coli, read-out: Antimicrobial activity (MIC); for selectivity index (EC50/MIC): RBC EC50 / MIC
E. coli 50857972 = assay: MIC, multi-resistant clinical isolate; format: cell-based, Escherichia coli; conditions: for MIC: Escherichia coli, read-out: Antimicrobial activity (MIC); for selectivity index (EC50/MIC): RBC EC50 / MIC
[2] = Determination of haemolytic activity; format: cell-based; conditions: human red blood cells (washed, from heparinized fresh blood); human RBCs, 1 h, 37° C.; read-out: RBC: haemolytic activity against human RBCs (EC50)
Procedure: Hemolysis was determined using a heparinized fraction (1000 IU/mL) of freshly drawn blood. Blood collected in EDTA containing test tubes (Vacutest®, KIMA, Arzergrande, Italy) was used for determination of the hematocrit (hct). The heparinized blood was washed 3× with pre-warmed PBS and adjusted to a final hct of 4%. Derivatives in DMSO (50 mM) were added to a 96-well polypropylene V-bottom plate (NUNC, Fisher Scientific, Oslo, Norway) and serially diluted. The test concentration range was 500-4 μM with DMSO contents ≤1%. A solution of 1% triton X-100 was used as positive control for 100% hemolysis. As negative control a solution of 1% DMSO in PBS buffer was included. No signs of DMSO toxicity were detected. RBCs (1% v/v final concentration) were added to the well plate and incubated at 37° C. and 800 rpm for 1 h. After centrifugation (5 min, 3000 g), 100 μL of each well were transferred to a 96-well flat bottom plate and absorbance was measured at 545 nm with a microplate reader (VersaMax™, Molecular Devices, Sunnyvale, Calif., USA). The percentage of hemolysis was calculated as the ratio of the absorbance in the derivative-treated and surfactant treated samples, corrected for the PBS background. Three independent experiments were performed and EC50 values are presented as averages.

K. pneumoniae 50531633 = assay: MIC, multi-resistant clinical isolate; format: cell-based, Klebsiella pneumoniae; conditions: K. pneumoniae 50531633, resistant to colistin; for MIC: Klebsiella pneumoniae, 24 h, read-out: Antimicrobial activity (MIC); for selectivity index (EC50/MIC): RBC EC50 / MIC
Procedure: as §1, §2
(§3) The MIC was determined as explained above with some exceptions; working solutions of test derivatives were prepared from concentrated DMSO stocks stored at room temperature, the density of the bacterial inoculum was increased 40× to 1-1.2×10^6 cells/mL, enterococci were incubated in Brain Heart Infusion broth (BHIB, Difco Laboratories, USA), the microplates were incubated for 24 h, and the derivatives were tested in four parallels.

K. pneumoniae K47-25 = assay: MIC, multi-resistant clinical isolate; format: cell-based, Klebsiella pneumoniae; conditions: for MIC: Klebsiella pneumoniae, K4725, 24 h, read-out: Antimicrobial activity (MIC); for selectivity index (EC50/MIC): RBC EC50 / MIC
Procedure: as §1, §2, §3

K. pneumoniae 50625602 = assay: MIC, multi-resistant clinical isolate; format: cell-based, Klebsiella pneumoniae; conditions: for MIC: Klebsiella pneumoniae, read-out: Antimicrobial activity (MIC); for selectivity index (EC50/MIC): RBC EC50 / MIC
Procedure: as §1, §2, §3

[3] = test system: Pseudomonas aeruginosa PA01, DSM 19880 (ATCC 15692); assay: MIC assay, antibiotic susceptible reference strain; format: cell-based; conditions: Pseudomonas aeruginosa, read-out: Antimicrobial activity (MIC) P. a
Procedure: as §1, §2

[4] = test system: Corynebacterium glutamicum ATCC 13032; assay: MIC assay, antibiotic susceptible reference strain; format: cell-based; conditions: Corynebacterium glutamicum, ATCC13032, read-out: Antimicrobial activity (MIC) C. g
Procedure: as §1, §2

[5] = test system: Staphylococcus aureus ATCC 9144; assay: MIC assay, antibiotic susceptible reference strain; format: cell-based; conditions: Staphylococcus aureus, ATCC9144, read-out: Antimicrobial activity (MIC) S. a
Procedure: as §1, §2

[6] = test system: Escherichia coli ATCC 25922; assay: MIC assay, antibiotic susceptible reference strain; format: cell-based; conditions: Escherichia coli, ATCC25922, read-out: Antimicrobial activity (MIC) E. c
Procedure: as §1, §2

E. faecium TUH50-22 = assay: MIC, multi-resistant clinical isolate; format: cell-based, Enterococcus faecium; conditions: for MIC: Enterococcus faecium, TUH5022, read-out: Antimicrobial activity (MIC); for selectivity index (EC50/MIC): RBC EC50 / MIC
Procedure: as §1, §2, §3

E. faecium 50673722 = assay: MIC, multi-resistant clinical isolate; format: cell-based, Enterococcus faecium; conditions: for MIC: Enterococcus faecium, read-out: Antimicrobial activity (MIC); for selectivity index (EC50/MIC): RBC EC50 / MIC
Procedure: as §1, §2, §3

E. faecium 50901530 = assay: MIC, multi-resistant clinical isolate; format: cell-based, Enterococcus faecium; conditions: for MIC: Enterococcus faecium, read-out: Antimicrobial activity (MIC); for selectivity index (EC50/MIC): RBC EC50 / MIC
Procedure: as §1, §2, §3

E. faecium 50758899 = assay: MIC, multi-resistant clinical isolate; format: cell-based, Enterococcus faecium; conditions: for MIC: Enterococcus faecium, read-out: Antimicrobial activity (MIC); for selectivity index (EC50/MIC): RBC EC50 / MIC
Procedure: as §1, §2, §3

E. faecium K36-18 = assay: MIC, multi-resistant clinical isolate; format: cell-based, Enterococcus faecium; conditions: for MIC: Enterococcus faecium, K3618, read-out: Antimicrobial activity (MIC); for selectivity index (EC50/MIC): RBC EC50 / MIC, E. faecium K36-18
Procedure: as §1, §2, §3

[7] = reference strains, range, read-out: MIC values against the Gram-negative bacteria E. coli and P. aeruginosa
[8] = K. pneumoniae K47-25, resistant to colistin

Compound	IC50 (S. epidermidis) [µg/mL]	MIC (E. coli 50579417) [µg/mL]	selectivity index (EC50/MIC) (E. coli 50579417)	MIC (E. coli 50639799) [µg/mL]	selectivity index (EC50/MIC) (E. coli 50639799)	MIC (E. coli 50857972) [µg/mL]	selectivity index (EC50/MIC) (E. coli 50857972)	EC50 at 1 h [2] [µg/mL]	MIC (K. pneumoniae 50531633) [µg/mL]	selectivity index (EC50/MIC) (K. pneumoniae 50531633)	MIC (K. pneumoniae 50625602) [µg/mL]	selectivity index (EC50/MIC) (K. pneumoniae 50625602)	MIC [3] [µg/mL]	MIC [4] [µg/mL]	MIC [5] [µg/mL]	MIC [6] [µg/mL]	MIC (E. faecium TUH50-22) [µg/mL]	selectivity index (EC50/MIC) (E. faecium TUH50-22)	MIC (E. faecium 50673722) [µg/mL]	selectivity index (EC50/MIC) (E. faecium 50673722)	further results
CC(C)(C)c1cc(CC2(Cc3cc(C(C)(C)C)cc(C(C)(C)C)c3)C(=O)N(CCCCNC(=N)N)C(=O)N(CCCCNC(=N)N)C2=O)cc(C(C)(C)C)c1 [8(iii), 1,1′-(4,4′-(5,5-bis(3,5-di-tert-butylbenzyl)-2,4,6-trioxodihydropyrimidine-1,3(2H,4H)-diyl)bis(butane-4,1-diyl))-diguanidine]	2 (≈ 2.63 µM)	16 (≈ 21.1 µM)	(<0.25)	8 (≈ 10.5 µM)	(<0.5)	8 (≈ 10.5 µM)	(<0.5)	< 4	16 (≈ 21.1 µM)	(<0.25)	16 (≈ 21.1 µM)	(<0.25)	4 (≈ 5.27 µM)	0.25 (≈ 0.329 µM)	1 (≈ 1.32 µM)	4 (≈ 5.27 µM)	2 (≈ 2.63 µM)	(<2)	2 (≈ 2.63 µM)	(<2)	MIC [1, 7]: 4 µg/mL (≈ 5.27 µM); MIC (K. pneumoniae K47-25; [8]): 16 µg/mL (≈ 21.1 µM); selectivity index (EC50/MIC) (K. pneumoniae K47-25; [8]): (<0.25); MIC (E. faecium 50901530): 2 µg/mL (≈ 2.63 µM); selectivity index (EC50/MIC) (E. faecium 50901530): (<2); MIC (E. faecium 50758899): 2 µg/mL (≈ 2.63 µM); selectivity index (EC50/MIC) (E. faecium 50758899): (<2); MIC (E. faecium K36-18): 2 µg/mL (≈ 2.63 µM); selectivity index (EC50/MIC) (E. faecium K36-18): (<2)
N=C(N)NCCCCN1C(=O)N(CCCCNC(=N)N)C(=O)C(Cc2ccc(F)c3ccccc23)(Cc2ccc(F)c3ccccc23)C1=O [8(v), 1,1′-(4,4′-(5,5-bis((4-fluoronaphthalen-1-yl)methyl)-2,4,6-trioxodihydropyrimidine-1,3(2H,4H)-diyl)bis(butane-4,1-diyl))diguanidine]	1 (≈ 1.49 µM)	8 (≈ 11.9 µM)	(11)	4 (≈ 5.96 µM)	(22)	4 (≈ 5.96 µM)	(22)	88 (≈ 131 µM)	8 (≈ 11.9 µM)	(11)	16 (≈ 23.9 µM)	(6)	4 (≈ 5.96 µM)	0.25 (≈ 0.373 µM)	1 (≈ 1.49 µM)	1 (≈ 1.49 µM)	4 (≈ 5.96 µM)	(22)	4 (≈ 5.96 µM)	(22)	MIC [1, 7]: 1 to 4 µg/mL (≈ 1.49 to 5.96 µM); MIC (K. pneumoniae K47-25; [8]): 8 µg/mL (≈ 11.9 µM); selectivity index (EC50/MIC) (K. pneumoniae K47-25; [8]): (11); MIC (E. faecium 50901530): 4 µg/mL (≈ 5.96 µM); selectivity index (EC50/MIC) (E. faecium 50901530): (22); MIC (E. faecium 50758899): 4 µg/mL (≈ 5.96 µM); selectivity index (EC50/MIC) (E. faecium 50758899): (22); MIC (E. faecium K36-18): 4 µg/mL (≈ 5.96 µM); selectivity index (EC50/MIC) (E. faecium K36-18): (22)
CC(C)(C)c1ccc(CC2(Cc3ccc(C(C)(C)C)cc3)C(=O)N(CCCCN)C(=O)N(CCCCN)C2=O)cc1 [Compound 7(i), 1,3-bis(4-aminobutyl)-5,5-bis(4-tertbutylbenzyl) pyrimidin-2,4,6(1H,3H,5H)-trione]	4 (≈ 7.11 µM)	8 (≈ 14.2 µM)	(18)	8 (≈ 14.2 µM)	(18)	4 (≈ 7.11 µM)	(36)	143 (≈ 254 µM)	16 (≈ 28.4 µM)	(9)	16 (≈ 28.4 µM)	(9)	8 (≈ 14.2 µM)	1 (≈ 1.78 µM)	4 (≈ 7.11 µM)	4 (≈ 7.11 µM)	8 (≈ 14.2 µM)	(18)	8 (≈ 14.2 µM)	(18)	MIC ([1]; range over S. aureus, C. glutamicum, E. coli, P. aeruginosa reference strains, read-out: MIC values against all the reference strains): 1 to 8 µg/mL (≈ 1.78 to 14.2 µM); MIC (K. pneumoniae K47-25): > 32 µg/mL; MIC (E. faecium 50901530): 4 µg/mL (≈ 7.11 µM); selectivity index (EC50/MIC) (E. faecium 50901530): (36); MIC (E. faecium 50758899): 8 µg/mL (≈ 14.2 µM); selectivity index (EC50/MIC) (E. faecium 50758899): (18); MIC (E. faecium K36-18): 8 µg/mL (≈ 14.2 µM); selectivity index (EC50/MIC) (E. faecium K36-18): (18)
